{"source": "patent US20250051409A1", "about": "“MODULATORS OF PHOSPHATIDYLSERlNE DECARBOXYLASE AND USE THEREOF” (THE NATIONAL INSTITUTE FOR BIOTECHNOLOGY IN THE NEGEV LTD., priority 2021, published 2025)", "key": {"SMAC": {"system": "SMAC", "assay": "IF staining of peptide-treated tumor sections, SMAC", "assay_type": "in vivo, nude mice", "details": "peptide-treated A549 tumors", "procedure": "(§1) Sections of paraffin-embedded control and peptide treated tumors were IF stained using specific antibodies and subjected to quantification. Relative staining intensity for the nuclear proliferation marker, Ki-67 (and its (A), SMAC (B) and NF-kB (C). Results represent the means±SEM (n=3) ***P≤0.001. (G) Sections from the indicated tumors were stained with H & E, with some areas were magnified.\n(§2) In order to reduce non-specific binding, sections were incubated in 10% normal goat serum for 2 h, then incubated with primary antibodies (Table 1) overnight at 4° C. […] Sections were washed with water, counterstained with hematoxylin, and mounted with Vectashield mounting medium (Vector Laboratories, Burlingame, CA)."}, "NF-κB": {"system": "NF-κB", "assay": "IF staining of peptide-treated tumor sections, NF-κB", "assay_type": "in vivo, nude mice", "details": "peptide-treated A549 tumors, immunofluorescence", "procedure": "as §1, §2"}, "[1]": {"molecular_target": "T1, phosphatidylserine decarboxylase (PSD) (Homo sapiens, UniProt Q9UG56)", "T1 construct": "Purified recombinant protein (full length) of human phosphatidylserine decarboxylase (PSD); His tag (N); purchased Acris-OriGene; host or cells: E. coli", "T1 sequence (Q9UG56 53-409)": "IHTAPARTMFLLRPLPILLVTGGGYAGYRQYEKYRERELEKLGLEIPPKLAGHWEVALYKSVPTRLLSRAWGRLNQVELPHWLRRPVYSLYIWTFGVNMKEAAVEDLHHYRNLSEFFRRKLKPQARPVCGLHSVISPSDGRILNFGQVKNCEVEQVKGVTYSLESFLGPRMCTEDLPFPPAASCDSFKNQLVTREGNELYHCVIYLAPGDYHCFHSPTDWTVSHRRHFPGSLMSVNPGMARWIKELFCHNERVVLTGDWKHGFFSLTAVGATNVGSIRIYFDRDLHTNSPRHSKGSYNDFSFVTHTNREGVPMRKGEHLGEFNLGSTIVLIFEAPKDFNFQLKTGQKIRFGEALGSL", "assay": "Peptide array blotted with PSD preincubated with peptide", "assay_type": "binding", "details": "PSD 0.15 μM, peptide 20 μM", "procedure": "(A) Schematic presentation of peptide array and detection of their interaction with SMAC. (B) Glass-bound peptide array consisting of overlapping peptides derived from […] SMAC-interacting proteins were incubated overnight with purified SMAC (0.3 μM) and then blotted with anti-SMAC antibodies (1:1000), followed by incubation with HRP-conjugated anti-mouse IgG and detection using a chemiluminescence kit. Dark spots represent binding of SMAC to peptides derived from SMAC-interacting proteins. (C) SMAC (0.3 μM) was incubated with purified PSD (0.4 μM) and blotted as in (B). The peptide spots where PSD prevented interaction with SMAC are circled. (D) Schematic presentation of peptide array and detection of their interaction with PSD. (E) Peptide array was blotted with purified PSD (0.15 μM) and then with anti-PSD antibodies as in (B). […]\nCustomized 768-peptide sequences derived from 11 SMAC-interacting proteins produced by INTAVIS Peptide Services (GmbH & Co. KG, Tubingen, Germany) were arrayed on a glass slide. […] Following extensive slide washing with Tris-buffered saline containing 0.05% Tween-20, SMAC or PSD binding was detected using anti-SMAC or anti-PSD antibodies and HRP-conjugated anti-rabbit or anti-mouse IgG as a secondary antibody. […]"}, "[2]": {"molecular_target": "T1, phosphatidylserine decarboxylase (PSD)", "assay": "MST binding of synthetic peptides to fluorescently-labelled purified PSD", "details": "PSD 0.25 μM, peptide 1-10 μM, 30 min at 37° C."}, "A-549 cells": {"system": "A-549 cells", "assay": "Cell death on DSB-3 staining", "assay_type": "cell-based, human", "details": "data not shown", "procedure": "A549 and A549-SMAC-KO cells were seeded on sterile cover slips in 24-well cell culture plates (75,000 cells/well) and allowed to adhere for 24 h. MitoTracker® (250 nM in DMEM+10% FBS) was added, and plates were incubated in a CO2 incubator for 30 min at 37° C. Cells were washed with PBS and incubated with DSB3 (10 μM in reaction buffer; 40 mM NaCl, 1 mM KPO4, pH 7.4) in a C02 incubator for 2 h. Cells were washed with PBS, fixed with 4% PFA for 20 min at room temperature, washed with PBS, and stained with DAPI for 20 min at room temperature. Cover slips were washed with PBS and mounted with Vectashield, and imaging was done using confocal microscopy (Olympus 1X81)."}, "[3]": {"system": "total phospholipids (PLs), PC, and PE", "assay": "PL, PC and PE levels in si-hSMAC-A treated tumors", "assay_type": "in vivo, athymic nude mice", "details": "relative to si-NT-TTs"}, "Ki-67": {"system": "Ki-67", "assay": "Ki-67 IHC in si-hSMAC-A treated tumors", "assay_type": "in vivo, athymic nude mice", "procedure": "(§3) Treatment was initiated when the average tumor volume in each group reached ˜50 mm^3. Results are presented as the mean tumor volume±SEM. […] Scale bars represent 50, 25 or 15 μm as indicated. […] Results are the means±SEM.\nas §2"}, "[4]": {"system": "A549 lung cancer tumor xenograft", "assay": "A549 xenograft tumor growth under si-hSMAC-A", "assay_type": "in vivo, athymic nude mice", "excerpt": "as §3\nMale athymic nude mice (6-8 weeks old) were obtained from Envigo and were kept in Ben-Gurion University (Israel) animal facility in temperature-controlled rooms and provided with water and food pellets ad libitum. Lung cancer A549 (3×10^6) cells were implanted subcutaneously on the dorsal flanks. Tumor growth was recorded using digital calipers, and volumes were calculated using formula […] (L=length; W=width). Mice were divided randomly into three groups once the average tumor volume reached ˜80 mm^3, and were treated subcutaneously with si-NT (group 1) or si-hSMAC (group 2-350 nM group 3-700 nM final concentration) mixed with JetPEI reagent three times a week. Mice were sacrificed at the end of experiment, and the tumors were excised and processed for immunohistochemistry or frozen in liquid nitrogen for immunoblotting and RNA isolation. All procedures involving mice were approved by the Institutional Animal Care and Use Committee."}, "SMAC/Diablo": {"system": "SMAC/Diablo", "assay": "SMAC/Diablo level in si-hSMAC-A treated tumors (immunoblot, IHC)", "assay_type": "in vivo, athymic nude mice", "details": "relative to si-NT-TTs", "procedure": "as §3, §2\nCells were harvested and washed twice with ice-cold PBS, and the pellets were lysed on ice for 30 min in a lysis buffer (50 mM Tris-HCl, pH 7.5, 150 mM NaCl, 1 mM EDTA, 1.5 mM MgCl2, 10% glycerol, 1% Triton X-100), freshly supplemented with a protease inhibitor cocktail (Calbiochem), incubated on ice for 20 min and centrifuged thereafter (10 min, 12000 g). The protein concentration of the supernatant was determined and […] were stored at −80° C. until used for gel electrophoresis and immunoblotting. Protein samples (10-20 μg) were subjected to SDS-PAGE and immunoblotting, using the selected primary antibodies, followed by incubation with HRP-conjugated secondary antibodies. HRP activity was determined using enhanced chemiluminescent substrate (Pierce Chemical, Rockford, IL). Band intensity was quantified using FUSION-FX (Vilber Lourmat, France)."}, "[5]": {"system": "A549 lung cancer tumor xenograft", "assay": "TUNEL staining of si-hSMAC-A treated tumors", "assay_type": "in vivo, athymic nude mice", "details": "data not shown"}}, "note": "Square brackets hold non-standard residues; d marks the D form. Ends that are not written are not given here. Peptide text beside a SMILES is read from it. Dmt = Cc1cc(O)cc(C)c1C[C@H](N)C(=O)O; Orn = NCCC[C@H](N)C(=O)O", "data": [{"compound": "Cc1cc(O)cc(C)c1C[C@H](NC(=O)[C@@H](CCCNC(=N)N)NC(=O)[C@@H](CC(C)C)NC(=O)[C@@H](CCCNC(=N)N)NC(=O)[C@@H](C)NC(=O)[C@@H](Cc1c[nH]c2ccccc12)NC(=O)[C@@H](CC(C)C)NC(=O)[C@@H](CO)NC(=O)[C@H]1CCCN1C(=O)[C@H](NC(=O)CNC(=O)[C@@H](Cc1ccc(O)cc1)NC(=O)[C@H](NC(=O)[C@H](NC(=O)[C@@H](CCCNC(=N)N)NC(=O)[C@@H](C)NC(=O)[C@@H](CCCNC(=N)N)NC(=O)[C@H]1CCCN1C(=O)[C@@H](CC(=O)O)NC(=O)[C@@H](CO)NC(=O)[C@H](NC(=O)CNC(=O)[C@@H](CO)NC(=O)[C@H](NC(=O)[C@@H](CC(C)C)NC(=O)[C@@H](CC(C)C)NC(=O)[C@@H](C)N)[C@H](C)O)[C@H](C)O)C(C)C)[C@H](C)O)[C@H](C)O)C(=O)N[C@@H](CCCN)C(=O)N[C@@H](Cc1ccccc1)C(N)=O", "note": "[1C11-HTRA2-All-D-Mito] (H-[dA][dL][dL][dT][dS]G[dT][dS][dD][dP][dR][dA][dR][dV][dT][dY]G[dT][dP][dS][dL][dW][dA][dR][dL][dR][Dmt][Orn]F-NH2; N-terminus and C-terminus assumed)", "values": [{"measurement": "decrease in expression of SMAC in tumors", "setting": "SMAC", "value": 80, "unit": "%"}, {"measurement": "decrease in NF-κB expression in tumors", "setting": "NF-κB", "value": "~90", "unit": "%"}, {"measurement": "tumor growth", "setting": "A549 cell xenografts; intravenously, 20 mg/kg", "value": "inhibits tumor growth"}, {"measurement": "decrease of tumor weight", "setting": "A549 cell xenografts; intravenously, 20 mg/kg, 2 times a week", "value": 50, "unit": "%"}, {"measurement": "inhibition of tumor growth", "setting": "A549 cell xenografts; mouse, in vivo, iv", "value": 50, "unit": "%"}]}, {"compound": "ALLTSGTSDPRARVTYGTPSLWARL [1C11]", "values": [{"measurement": "PSD interaction with array peptides after pre-incubation of PSD with the peptide", "setting": "[1]", "value": "eliminate PSD interaction with most peptides"}, {"measurement": "Kd", "setting": "[2]", "value": 3, "unit": "µM"}]}, {"compound": "Distyrylbenzene-bis-aldehyde [DSB-3]", "values": [{"measurement": "cell death", "setting": "A-549 cells", "value": "induces no cell death"}]}, {"compound": "si-hSMAC-A: Human SMAC/Diablo-specific siRNA, sense SEQ ID NO:33 and anti-sense SEQ ID NO:34 (sense AAGCGGUGUUUCUCAGAATTGTT; antisense AACAAUUCUGAGAAACCCGCTT; chemistry not given here)", "values": [{"measurement": "decrease of PC in treated tumors", "setting": "[3]", "value": 65, "unit": "%"}, {"measurement": "decrease of PLs in treated tumors", "setting": "[3]", "value": 50, "unit": "%"}, {"measurement": "increase of PE in treated tumors", "setting": "[3]", "value": 200, "unit": "%"}, {"measurement": "expression of Ki-67 in treated tumors", "setting": "Ki-67", "value": "highly reduced"}, {"measurement": "tumor volume reduction relative to si-NT-treated tumors", "setting": "[4]; si-hSMAC-A at 350 nM", "value": 50, "unit": "%"}, {"measurement": "tumor volume reduction relative to si-NT-treated tumors", "setting": "[4]; si-hSMAC-A at 700 nM", "value": 85, "unit": "%"}, {"measurement": "decrease of SMAC/Diablo level in treated tumors", "setting": "SMAC/Diablo", "value": 75, "unit": "%"}, {"measurement": "cell death in treated tumors", "setting": "[5]", "value": "No cell death was detected"}]}]}
